Experimental data: BigSolDB 2.1

CC(=O)c1c(O)ccc2ccccc12
Details	solubility (mole fraction)
in cyclohexane, 292.9 K	0.0181
in cyclohexane, 296.6 K	0.0229
in cyclohexane, 300.7 K	0.0292
in cyclohexane, 304.8 K	0.0379
in cyclohexane, 308.85 K	0.0505
in cyclohexane, 312.6 K	0.068
in cyclohexane, 316.25 K	0.0957
in cyclohexane, 318.95 K	0.132
in cyclohexane, 320.35 K	0.162
in cyclohexane, 321.85 K	0.19
in ethanol, 285.7 K	0.0615
in ethanol, 288.9 K	0.0712
in ethanol, 293.05 K	0.0859
in ethanol, 297 K	0.104
in ethanol, 301.15 K	0.135
in ethanol, 304.55 K	0.168
in ethanol, 310.05 K	0.234
in ethanol, 314.65 K	0.321
in n-butanol, 282.55 K	0.0555
in n-butanol, 288.55 K	0.0724
in n-butanol, 293.35 K	0.0897
in n-butanol, 299 K	0.117
in n-butanol, 303.95 K	0.155
in n-butanol, 307.95 K	0.201
in n-butanol, 311.75 K	0.257
in n-butanol, 314.95 K	0.328
in n-butanol, 317.35 K	0.389
in n-butanol, 318.15 K	0.408
in n-heptane, 288.75 K	0.0133
in n-heptane, 293.15 K	0.0163
in n-heptane, 296.95 K	0.0198
in n-heptane, 301.8 K	0.0239
in n-heptane, 302.4 K	0.0245
in n-heptane, 306.55 K	0.0305
in n-heptane, 312.05 K	0.0404
in n-heptane, 317.15 K	0.056
in n-heptane, 322.05 K	0.079
in n-heptane, 326.05 K	0.115
in n-heptane, 328.45 K	0.166
in n-heptane, 329.25 K	0.214
in n-hexane, 283.75 K	0.0082
in n-hexane, 289.25 K	0.0107
in n-hexane, 295.55 K	0.0141
in n-hexane, 299.25 K	0.0175
in n-hexane, 305.2 K	0.0242
in n-hexane, 310.6 K	0.032
in n-hexane, 311.45 K	0.0339
in n-hexane, 314.8 K	0.0414
in n-hexane, 319.05 K	0.0529
in n-hexane, 323.45 K	0.0716

CC(=O)c1ccc2ccccc2c1O
Details	solubility (mole fraction)
in cyclohexane, 292.4 K	0.0076
in cyclohexane, 296.55 K	0.0092
in cyclohexane, 300.65 K	0.0114
in cyclohexane, 304.9 K	0.014
in cyclohexane, 308.6 K	0.0173
in cyclohexane, 313.55 K	0.0222
in cyclohexane, 318.5 K	0.0285
in cyclohexane, 324.75 K	0.0382
in cyclohexane, 329.65 K	0.0511
in cyclohexane, 333.95 K	0.0679
in cyclohexane, 337.6 K	0.0872
in cyclohexane, 340.65 K	0.109
in ethanol, 289.15 K	0.0049
in ethanol, 292.6 K	0.0055
in ethanol, 296.25 K	0.0064
in ethanol, 299.95 K	0.0075
in ethanol, 304.55 K	0.0089
in ethanol, 307.95 K	0.0104
in ethanol, 310.55 K	0.0117
in ethanol, 312.9 K	0.013
in ethanol, 316.4 K	0.015
in ethanol, 319.6 K	0.0174
in ethanol, 323.4 K	0.0207
in ethanol, 327.35 K	0.025
in ethanol, 331.2 K	0.0313
in ethanol, 334.95 K	0.0399
in ethanol, 338.65 K	0.052
in ethanol, 342.25 K	0.0696
in n-butanol, 280.85 K	0.0054
in n-butanol, 285.65 K	0.0065
in n-butanol, 291.55 K	0.0084
in n-butanol, 295.65 K	0.0101
in n-butanol, 299.45 K	0.012
in n-butanol, 303.75 K	0.0144
in n-butanol, 308.25 K	0.0179
in n-butanol, 312.75 K	0.0219
in n-butanol, 318.65 K	0.0291
in n-butanol, 325.85 K	0.0431
in n-butanol, 328.95 K	0.0523
in n-butanol, 332.65 K	0.0648
in n-butanol, 335.75 K	0.0788
in n-butanol, 336.45 K	0.0831
in n-heptane, 290.65 K	0.008
in n-heptane, 295.25 K	0.0099
in n-heptane, 299.9 K	0.0123
in n-heptane, 304.65 K	0.0153
in n-heptane, 310.15 K	0.019
in n-heptane, 315.4 K	0.0239
in n-heptane, 321.65 K	0.0306
in n-heptane, 327.2 K	0.0395
in n-heptane, 332.65 K	0.05
in n-heptane, 338.55 K	0.0627
in n-heptane, 344.35 K	0.0898
in n-heptane, 348.35 K	0.116
in n-hexane, 281.65 K	0.0045
in n-hexane, 286.55 K	0.0056
in n-hexane, 289.75 K	0.0065
in n-hexane, 293.45 K	0.0077
in n-hexane, 297.35 K	0.0091
in n-hexane, 301.95 K	0.0107
in n-hexane, 305.45 K	0.0129
in n-hexane, 309.95 K	0.0156
in n-hexane, 314.25 K	0.0189
in n-hexane, 319.55 K	0.0236
in n-hexane, 324.05 K	0.0288
